From patent US9447026B2, “Bicyclic analgesic compounds” (KALYRA PHARMACEUTICALS, INC., priority 2013, dated 2016)

Experiments:
male ICR mice = assay: Formalin Paw Test; format: in vivo
Experimental: One test compound or the vehicle was administered to each mouse in each test group (8 mice per group). Non-fasted male ICR mice weighing 23±3 g were used. Compounds of Formula (I) were administered at a concentration of 3 mg/kg, 10 mg/kg, 15 mg/kg, 30 mg/kg, 60 mg/kg, 100 mg/kg, 200 mg/kg or 300 mg/kg; morphine was administered at a concentration of 5 mg/kg; and acetaminophen was administered at a concentration of 200 mg/kg. The control group received the vehicle (5% DMSO/40% PEG400/20% HPbCD/Saline). After 30 or 60 minutes, a 2% formalin solution (0.02 mL) was injected into one hind paw (sub-plantar) of each mouse. Responses were measured every 5 minutes after the formalin injection for 35 minutes.

[1] = test system: pooled human liver microsomes; assay: Glutathione Conjugation Assay; format: in vitro ADME; conditions: 100 μM test compound, 1 mM glutathione, NADPH, 60 mins at 37° C.
Experimental: An incubation mixture consisting of 5 μL of 10 mM test compound in DMSO (5 μL of DMSO for negative control; 5 μL of 10 mM acetaminophen in DMSO for positive control), 5 μL of 0.1 M glutathione 25 mM EDTA in water, 50 μL of 100 mM MgCl2 in water, 50 μL of 20 mg/mL pooled human liver microsomes (P-450 content: ˜0.5 nmol/mg protein), and 340 μL of 100 mM potassium phosphate buffer (pH 7.4) was preincubated at 37° C. for 10 mins. The reaction was initiated by the addition of 50 μL of 100 mM NADPH solution. The final incubation volume was 0.5 mL. The incubation mixture contains 100 μM test compound or acetaminophen (positive control), 1 mM glutathione, and 1 μM P450. After 60 mins incubation at 37° C., 1 mL of chilled acetonitrile was added to stop the reaction. After the addition of acetonitrile, the sample was vortexed and centrifuged. The supernatant was collected, concentrated in TurboVap under N2 (10 psi) at 30° C. for 35 mins, and transferred to a 96-well plate. The plate was capped and centrifuged. The supernatant was injected for LC-MS/MS analysis.
As a result, one skilled in the art would not expect compounds of Formula (I) to form the reactive metabolite NAPQI. A 129 neutral loss scan can be used to search or detect the formation of glutathione conjugates.

[2] = 200 mg/kg, administered 30 minutes before formalin injection, acetaminophen 200 mg/kg, FIG. 5

Compound | amount less than the amount of acetaminophen needed to achieve the approximate same pain response (male ICR mice; 60 mg/kg vs 200 mg/kg acetaminophen) | efficacy compared to acetaminophen, after 25 minutes (male ICR mice; [2]) | pain response compared to acetaminophen, initial 25 minutes (male ICR mice; [2]) | dosage providing a pain response approximately equal to 200 mg/kg of acetaminophen (male ICR mice; dosages ranging from 3 mg/kg to 100 mg/kg, FIG. 9) [mg/kg] | pain response compared to acetaminophen, entire testing period (male ICR mice; given 60 minutes prior to formalin injection, FIG. 10) | formation of reactive metabolite NAPQI [1] | glutathione conjugate peak (129 neutral loss scan, LC-MS/MS) [1] | compound dose as percent of acetaminophen dose giving a lower pain response (male ICR mice; 60 mg/kg vs 200 mg/kg acetaminophen, tonic phase) | duration of decrease in pain response (phases) (male ICR mice; 200 mg/kg, administered 30 minutes before formalin injection, FIG. 4) | pain response compared to acetaminophen and morphine (male ICR mice; 200 mg/kg, administered 30 minutes before formalin injection, morphine 5 mg/kg, acetaminophen 200 mg/kg, FIG. 4) | efficacy compared to acetaminophen, acute phase (male ICR mice; all dosages ranging from 15 mg/kg to 200 mg/kg, FIG. 8) | pain response compared to acetaminophen (male ICR mice; dosage 200 mg/kg, FIG. 8) | dose needed to reduce the pain response to a level less than 200 mg/kg of acetaminophen (male ICR mice; tonic phase, FIG. 8) [mg/kg]
CC(=O)NC12CC(C1)C2 [compound 4, N-(bicyclo[1.1.1]pentan-1-yl)acetamide] | about 33% | increased efficacy compared to acetaminophen | reduces the pain response in a manner similar to acetaminophen for the initial 25 minutes | 60 | reduces the pain response in a manner similar to acetaminophen throughout the entire testing period | NAPQI was not formed | no glutathione conjugate peak was observed | – | – | – | – | – | –
CC(=O)NC12CC(NC(C)=O)(C1)C2 [compound 10, N,N′-(bicyclo[1.1.1]pentane-1,3-diyl)diacetamide] | – | – | – | – | – | NAPQI was not formed | no glutathione conjugate peak was observed | about 33% | lasted through both the early/acute phase (0-5 minutes) and the late/tonic phase (20-35 minutes) | significantly decreased the pain response compared to both acetaminophen and morphine | equal to or significant increased efficacy compared to acetaminophen | approximately 50% | 60
